# US20250281499A1, “FUSED AMINO PYRIMIDINE COMPOUNDS FOR TREATMENT OF NEUROPATHIC AND NEURO-INFLAMMATORY PAIN” (Ovid Therapeutics Inc., priority 2024, published 2025)
# Tests used:
# KCC4 = target: T1, KCC4 (Homo sapiens, UniProt Q9Y666); assay: Tl+ flux assay, HEK-293 cells expressing KCC4; format: cell-based; settings: read-out: concentration at which effects on KCC4 were seen (EC50, FIG. 1G)
# T1 construct: expressed in transfected cells; host or cells: HEK-293
# T1 sequence (Q9Y666 1-1083): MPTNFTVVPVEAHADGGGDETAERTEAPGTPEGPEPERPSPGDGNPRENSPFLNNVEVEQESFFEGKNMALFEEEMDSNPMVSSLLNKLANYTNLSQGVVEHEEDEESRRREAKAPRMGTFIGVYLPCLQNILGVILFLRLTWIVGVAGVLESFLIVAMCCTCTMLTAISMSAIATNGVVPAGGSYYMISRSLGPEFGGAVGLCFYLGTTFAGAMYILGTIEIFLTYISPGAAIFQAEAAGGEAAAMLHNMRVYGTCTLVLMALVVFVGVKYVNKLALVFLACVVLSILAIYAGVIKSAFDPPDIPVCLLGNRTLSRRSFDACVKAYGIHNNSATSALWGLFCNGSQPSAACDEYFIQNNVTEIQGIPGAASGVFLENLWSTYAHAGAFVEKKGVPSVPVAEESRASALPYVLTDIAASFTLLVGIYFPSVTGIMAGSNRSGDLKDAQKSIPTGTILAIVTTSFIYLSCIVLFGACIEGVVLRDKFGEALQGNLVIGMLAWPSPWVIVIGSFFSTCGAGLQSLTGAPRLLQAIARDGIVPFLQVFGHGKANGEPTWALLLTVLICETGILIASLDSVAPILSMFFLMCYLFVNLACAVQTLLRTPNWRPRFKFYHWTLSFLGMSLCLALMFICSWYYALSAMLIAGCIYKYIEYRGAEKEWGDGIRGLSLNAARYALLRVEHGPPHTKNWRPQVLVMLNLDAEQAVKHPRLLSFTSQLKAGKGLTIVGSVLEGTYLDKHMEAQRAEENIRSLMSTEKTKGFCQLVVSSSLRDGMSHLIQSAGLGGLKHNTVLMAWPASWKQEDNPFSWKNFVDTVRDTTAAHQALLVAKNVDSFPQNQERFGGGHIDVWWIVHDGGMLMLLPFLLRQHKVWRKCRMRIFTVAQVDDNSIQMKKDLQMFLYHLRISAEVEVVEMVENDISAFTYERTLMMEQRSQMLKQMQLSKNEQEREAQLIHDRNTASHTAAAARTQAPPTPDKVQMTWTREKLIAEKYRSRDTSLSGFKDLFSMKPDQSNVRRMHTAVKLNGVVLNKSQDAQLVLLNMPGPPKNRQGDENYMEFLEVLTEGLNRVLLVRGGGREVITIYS
# Method: (§1) FLIPR TI Flux assay. HEK-293 cells were washed with HBSS, and then incubated with loading buffer containing TI sensitive fluorescent dye (https://www.moleculardevices.com), 20 μM bumetanide 20 μM ouabain and 2.5 mM probenecid for 1 h at room temperature (RT) under control conditions or with drugs in the dark using a FlexStation 3 microplate reader (Molecular Devices) and imaged […] for 30 min. Stimulus buffer was added containing 5 mM K^+/0.5 mM Tl^+ and cells were imaged every 1.5 over a 190 second time course The initial rate Tl^+ uptake (Relative Fluorescence Units (RFU) per second) was determined following addition of the stimulus buffer as outlined previously (Conway et al., 2017, supra) (Lee et al., 2022, supra).
# (§2) Several studies have shown that the activity and plasma membrane accumulation of KCC2 is potentiated via phosphorylation of S940, a process mediated by the activity of protein kinase C and protein phosphatase 1 (Lee et al, 2011, supra; Lee et al., J Biol Chem 282, 29777-29784 (2007); Moore et al., Proc. Natl. Acad. Sci. U.S.A 115, 10166-10171 (2018); Moore et al., Trends Neurosci. 40, 555-571 (2017); Silayeva et al., Proc. Natl. Acad. Sci. U.S.A. 112, 3523-3528 (2015)). […] Compared to KCC2, effects on KCC3, KCC4, and NKCC1 were only seen at concentrations more than 35-fold that of KCC2 (>100 μM) (FIG. 1G).
# KCC2-S940A = target: T2, KCC2-S940A (Homo sapiens, UniProt Q9H2X9, S963A); assay: Tl+ flux assay, KCC2-S940A construct in HEK-293 cells; format: cell-based
# T2 construct: expressed in transfected cells; host or cells: HEK-293
# T2 sequence (Q9H2X9 1-1116 isoform Q9H2X9-2 S940A): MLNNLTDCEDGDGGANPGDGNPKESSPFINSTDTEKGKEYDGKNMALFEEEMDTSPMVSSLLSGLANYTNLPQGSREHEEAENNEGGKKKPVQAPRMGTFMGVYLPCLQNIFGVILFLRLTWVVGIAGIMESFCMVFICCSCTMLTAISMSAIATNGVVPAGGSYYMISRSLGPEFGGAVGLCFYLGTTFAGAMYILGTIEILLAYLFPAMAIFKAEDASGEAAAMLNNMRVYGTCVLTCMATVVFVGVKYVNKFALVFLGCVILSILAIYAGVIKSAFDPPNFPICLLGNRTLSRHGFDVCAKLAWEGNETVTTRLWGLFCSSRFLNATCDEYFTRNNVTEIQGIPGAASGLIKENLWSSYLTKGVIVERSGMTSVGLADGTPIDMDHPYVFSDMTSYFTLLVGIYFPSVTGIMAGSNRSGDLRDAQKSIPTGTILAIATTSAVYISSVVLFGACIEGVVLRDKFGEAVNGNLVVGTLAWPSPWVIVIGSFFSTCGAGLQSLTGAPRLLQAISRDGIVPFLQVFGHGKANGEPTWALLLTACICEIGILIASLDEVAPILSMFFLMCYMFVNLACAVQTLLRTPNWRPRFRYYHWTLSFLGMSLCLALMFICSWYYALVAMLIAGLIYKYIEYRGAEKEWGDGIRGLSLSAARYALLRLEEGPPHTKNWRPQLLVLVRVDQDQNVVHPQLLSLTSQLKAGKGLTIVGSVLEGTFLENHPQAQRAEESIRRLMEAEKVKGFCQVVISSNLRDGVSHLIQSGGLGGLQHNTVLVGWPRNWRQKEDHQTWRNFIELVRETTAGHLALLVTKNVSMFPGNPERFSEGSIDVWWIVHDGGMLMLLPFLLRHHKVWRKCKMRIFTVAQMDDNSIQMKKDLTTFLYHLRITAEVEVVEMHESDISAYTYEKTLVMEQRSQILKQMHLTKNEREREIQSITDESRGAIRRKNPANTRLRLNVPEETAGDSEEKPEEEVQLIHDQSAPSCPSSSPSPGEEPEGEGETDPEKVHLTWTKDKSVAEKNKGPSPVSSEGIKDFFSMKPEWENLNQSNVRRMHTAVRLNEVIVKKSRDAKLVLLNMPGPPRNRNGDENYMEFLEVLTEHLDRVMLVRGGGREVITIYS
# Method: as §1, §2
compound,measurement,setting,value
"C[C@@H]1CN(c2nc3c(c(Nc4ccc(C5CCCCC5)cc4)n2)COC3)CCO1 [Compound A, (R)—N-(4-cyclohexylphenyl)-2-(2-methylmorpholino)-5,7-dihydrofuro[3,4-d]pyrimidin-4-amine]",EC50,KCC4,> 100 µM
same,activity of KCC2-S940A construct,KCC2-S940A,increased the activity
